The record followed here is patent US5578634A, “1H-indole-3-acetic acid hydrazide sPLA2 inhibitors” (Eli Lilly and Company, priority 1995, dated 1996).

In the test the target is T1, human secreted PLA2 (Homo sapiens, UniProt P14555).
T1 sequence (P14555 21-144): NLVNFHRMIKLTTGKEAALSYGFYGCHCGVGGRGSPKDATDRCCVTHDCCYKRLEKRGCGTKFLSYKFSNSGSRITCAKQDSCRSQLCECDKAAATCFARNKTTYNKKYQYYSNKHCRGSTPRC
Nature of the test: chromogenic assay of recombinant human secreted phospholipase A2 inhibition (Assay Example 1). The conditions noted are these: mean of 3-5 tests; 40° C., 30 minutes, pH 7.5, 405 nanometers; read-out: Inhibition of human secreted PLA2 IC50 ± mean deviation (3-5 tests). The test is classed as biochemical. From the text: The assay described herein has been adapted for high volume screening using 96 well microtiter plates. A general description of this assay method is found in the article, "Analysis of Human Synovial Fluid Phospholipase A2 on Short Chain Phosphatidylcholine-Mixed Micelles: Development of a Spectrophotometric Assay Suitable for a Microtiterplate Reader", by Laure J. Reynolds, Lori L. […] Reagents, the disclosure of which is incorporated herein by reference. REACTION BUFFER CaCl2.2H20 (1.47 g/L) KCl (7.455 g/L) Bovine Serum Albumin (fatty acid free) (1 g/L) (Sigma A-7030, product of Sigma Chemical Co. St. Louis Mo., USA) TRIS HCl (3.94 g/L) pH 7.5 (adjust with NaOH) ENZYME BUFFER […] 0.2 NaCl Adjust pH to 4.5 with acetic acid DTNB […] RACEMIC DIHEPTANOYL THIO - PC […] TRITON X-100™ prepare at 6.249 mg/ml in reaction buffer to equal […]. REACTION MIXTURE A measured volume of racemic dipheptanoyl thio PC supplied in chloroform at a concentration of 100 mg/ml is taken to dryness and redissolved in 10 millimolar TRITON X-100™ nonionic detergent aqueous solution. Reaction Buffer is added to the solution, then DTNB to give the Reaction Mixture. The reaction mixture thus obtained contains 1 mM diheptanoly thio-PC substrate, 0.29 mM Triton X-100™ detergent, and 0.12 mM DTMB in a buffered aqueous solution at pH 7.5. Assay Procedure: 1. Add 0.2 ml reaction mixture to all wells; 2. Add 10 ul test compound (or solvent blank) to appropriate wells, mix 20 seconds; 3. Add 50 nanograms of sPLA2 (10 microliters) to appropriate wells; 4. Incubate plate at 40° C. for 30 minutes; […] Read absorbance of wells at 405 nanometers with an automatic plate reader. All compounds were tested in triplicate. Typically, compounds were tested at a final concentration of 5 ug/ml. […] Lack of color development at 405 nanometers evidenced inhibition. Compounds initially found to be active were reassayed to confirm their activity and, if sufficiently active, IC50 values were determined. […] In all cases, % inhibition measured at 405 nanometers generated by enzyme reactions containing inhibitors relative to the uninhibited control reactions was determined. Each sample was titrated in triplicate and result values were averaged for plotting and calculation of IC50 values. […] IC50 values were determined at least three times for each compound tested.
Turning to `COc1ccc2c(c1)c(CC(=O)NN)c(C)n2Cc1cccc(N)c1` [Example 35, 1-[(3-Aminophenyl)methyl]-5-methoxy-2-methyl-1H-indole-3-acetic acid hydrazide], the IC50 – broadly, the concentration that inhibits the measured activity by half – was 7120 ± 4890 nM.
As to `COc1ccc2c(c1)c(CC(=O)NN)cn2Cc1ccccc1-c1ccccc1` [Example 12, 1-([1,1'-Biphenyl]-2-ylmethyl)-5-methoxy-1H-indole-3-acetic acid hydrazide], the concentration for half-maximal inhibition (IC50) worked out at 5490 ± 4290 nM.
On to `COc1ccc2c(c1)c(CC(=O)NN)c(C)n2Cc1ccccc1Cl` [Example 17, 1-(2-Chlorophenylmethyl)-5-methoxy-2-methyl-1H-indole-3-acetic acid hydrazide], for which the IC50 is 1710 ± 240 nM.
In the case of `COc1ccc2c(c1)c(CC(=O)NN)c(C)n2Cc1c(Cl)cccc1Cl` [Example 21, 1-(2,6-Dichlorophenylmethyl)-5-methoxy-2-methyl-1H-indole-3-acetic acid hydrazide] it was 640 ± 190 nM.
For the compound `Cc1c(CC(=O)NN)c2c(Br)cccc2n1Cc1ccccc1` [Example 53, 4-Bromo-2-methyl-1-(phenylmethyl)-1H-indole-3-acetic acid hydrazide], the IC50 amounted to 2060 ± 940 nM.
As to `COc1ccc2c(c1)c(CC(=O)NN)c(C)n2CCCCc1ccccc1` [Example 42, 5-Methoxy-2-methyl-1-(4-phenylbutyl)-1H-indole-3-acetic acid hydrazide], the IC50 was found to be 16500 ± 3580 nM.
On to `COc1ccc2c(c1)c(CC(=O)NN)c(SC)n2Cc1ccccc1` [Example 45, 5-Methoxy-2-methylthio-1-(phenylmethyl)-1H-indole-3-acetic acid hydrazide], for which the IC50 stood at 600 ± 130 nM.
Next, `COc1ccc2c(c1)c(CC(=O)NN)c(C)n2Cc1ccccc1OC` [Example 26, 5-Methoxy-1-[(2-methoxyphenyl)methyl]-2-methyl-1H-indole-3-acetic acid hydrazide]: 3260 ± 1740 nM; `Cc1c(CC(=O)NN)c2cc(OCc3ccc4ccccc4n3)ccc2n1Cc1ccc(Cl)cc1` [Example 63, 1-[(4-Chlorophenyl)methyl]-2-methyl-5-[(2-quinolyl)methoxy]-1H-indole-3-acetic acid hydrazide]: 8460 ± 5450 nM.
For `CCc1c(CC(=O)NN)c2cc(C)ccc2n1Cc1ccccc1` [Example 6, 2-Ethyl-5-methyl-1-(phenylmethyl)-1H-indole-3-acetic acid hydrazide], the IC50 is 670 ± 240 nM.
Regarding `Cc1c(CC(=O)NN)c2c(-c3ccccc3)cccc2n1Cc1ccccc1` [Example 55, 2-Methyl-4-phenyl-1-(phenylmethyl)-1H-indole-3-acetic acid hydrazide], the half-inhibitory concentration (IC50) was 2060 ± 940 nM.
`Cc1ccc2c(c1)c(CC(=O)NN)c(C)n2Cc1ccccc1` [Example 59, 2,5-Dimethyl-1-(phenylmethyl)-1H-indole-3-acetic acid hydrazide]: the IC50 amounted to 760 ± 350 nM.
Next, `COc1ccc2c(c1)c(CC(=O)NN)c(C)n2Cc1ccc(OCc2ccccc2)cc1` [Example 32, 1-[(4-Benzyloxyphenyl)methyl]-5-methoxy-2-methyl-1H-indole-3-acetic acid hydrazide]: 2280 ± 570 nM; `COc1ccc(Cn2c(C)c(CC(=O)NN)c3cc(OC)ccc32)cc1` [Example 28, 5-Methoxy-1-[(4-methoxyphenyl)methyl]-2-methyl-1H-indole-3-acetic acid hydrazide]: 11700 ± 4040 nM.
`Cc1c(CC(=O)NN)c2cc(F)ccc2n1Cc1ccccc1` [Example 47, 5-Fluoro-2-methyl-1-(phenylmethyl)-1H-indole-3-acetic acid hydrazide]: the IC50 came to 1490 ± 340 nM.
In the case of `Cc1c(CC(=O)NN)c2ccc(Br)cc2n1Cc1ccccc1` [Example 54, 6-Bromo-2-methyl-1-(phenylmethyl)-1H-indole-3-acetic acid hydrazide] it was 1020 ± 260 nM; in that of `Cc1c(CC(=O)NN)c2ccccc2n1Cc1ccccc1` [Example 10, 2-Methyl-1-(phenylmethyl)-1H-indole-3-acetic acid hydrazide], 2360 ± 500 nM.
For `COc1cccc(Cn2c(C)c(CC(=O)NN)c3cc(OC)ccc32)c1` [Example 27, 5-Methoxy-1-[(3-methoxyphenyl)methyl]-2-methyl-1H-indole-3-acetic acid hydrazide], the IC50 came to 2180 ± 510 nM.
In the case of `COc1ccc2c(c1)c(CC(=O)NN)c(C)n2C(C)c1ccccc1` (centres unmarked) [Example 36, 5-Methoxy-2-methyl-1-(1-phenylethyl)-1H-indole-3-acetic acid hydrazide] it was 5320 ± 1930 nM; in that of `COc1ccc2c(c1)c(CC(=O)NN)c(C)n2Cc1cccc(C(F)(F)F)c1` [Example 23, 5-Methoxy-2-methyl-1-[(3-trifluoromethylphenyl)methyl]-1H-indole-3-acetic acid hydrazide], 890 ± 520 nM; in that of `COc1ccc2c(c1)c(CC(=O)NN)c(C)n2Cc1ccc2ccccc2n1` [Example 40, 5-Methoxy-2-methyl-1-[(2-quinolyl)methyl]-1H-indole-3-acetic acid hydrazide], 8150 ± 3270 nM.
Take `COc1ccc2c(c1)c(CC(=O)NN)c(C)n2Cc1ccc(O)cc1` [Example 33, 1-[(4-Hydroxyphenyl)methyl]-5-methoxy-2-methyl-1H-indole-3-acetic acid hydrazide]: the IC50 was determined as 5960 ± 2030 nM.
In the case of “5-Methoxy-1-(phenylmethyl)-1H-indole-3-propanoic acid hydrazide [Example 64]” it was 5900 ± 2990 nM.
For `Cc1c(CC(=O)NN)c2cc(OCc3ccc4ccccc4n3)ccc2n1Cc1ccccc1` [Example 62, 2-Methyl-1-(phenylmethyl)-5-[(2-quinolyl)methoxy]-1H-indole-3-acetic acid hydrazide], the 50% inhibitory concentration (IC50) worked out at 360 ± 170 nM.
As to `CCCCCCCCCCn1c(C)c(CC(=O)NN)c2cc(OC)ccc21` [Example 14, 1-Decyl-5-methoxy-2-methyl-1H-indole-3-acetic acid hydrazide], the IC50 amounted to 7080 ± 1610 nM.
As for `COc1ccc2ccccc2c1Cn1c(C)c(CC(=O)NN)c2ccccc21` [Example 11, 1-(2-Methoxy-1-naphthalenylmethyl)-2-methyl-1H-indole-3-acetic acid hydrazide], the concentration for half-maximal inhibition (IC50) came out at 11100 ± 1800 nM.
As to `Cc1c(CC(=O)NN)c2ccc(Cl)cc2n1Cc1ccccc1` [Example 8, 6-Chloro-2-methyl-1-(phenylmethyl)-1H-indole-3-acetic acid hydrazide], the IC50 came to 1140 ± 440 nM.
As for `COc1ccc2c(c1)c(CC(=O)NN)c(C)n2CC(C)C` [Example 13, 5-Methoxy-2-methyl-1-(2-methyl-1-propyl)-1H-indole-3-acetic acid hydrazide], the IC50 was found to be 9880 ± 3410 nM.
As for `Cc1c(CC(=O)NN)c2cc(-c3ccccc3)ccc2n1Cc1cccc(OCc2ccccc2)c1` [Example 58, 1-[(3-Benzyloxyphenyl)methyl]-2-methyl-5-phenyl-1H-indole-3-acetic acid hydrazide], the IC50 was 2210 ± 1160 nM.
Consider `COc1ccc2c(c1)c(CC(=O)NN)c(C)n2Cc1cc(Cl)ccc1Cl` [Example 20, 1-(2,5-Dichlorophenylmethyl)-5-methoxy-2-methyl-1H-indole-3-acetic acid hydrazide], for which the IC50 stood at 9390 ± 2300 nM.
`COc1ccc2c(c1)c(CC(=O)NN)c(C)n2Cc1ccc(Cl)cc1` [Example 19, 1-(4-Chlorophenylmethyl)-5-methoxy-2-methyl-1H-indole-3-acetic acid hydrazide]: the IC50 stood at 9280 ± 2060 nM.
On to `COc1ccc2c(c1)c(CC(=O)NN)c(C)n2Cc1cccc(C)c1` [Example 22, 5-Methoxy-1-[(3-methylphenyl)methyl]-2-methyl-1H-indole-3-acetic acid hydrazide], for which the half-maximal inhibitory concentration (IC50) is 1540 ± 670 nM.
“5-Methoxy-2-methyl-1-(phenylmethyl)-1H-indole-3-butanoic acid hydrazide [Example 67]”: the IC50 amounted to 24200 ± 10700 nM.
On to `Cc1c(CC(=O)NN)c2cc(C(=O)NN)ccc2n1Cc1cccc(Cl)c1` [Example 69, 1-[(3-Chlorophenyl)methyl]-5-hydrazinocarbonyl-2-methyl-1H -indole-3-acetic acid hydrazide], for which the IC50 is 2700 ± 380 nM.
For the compound `Cc1c(CC(=O)NN)c2cc(OCCCC(=O)O)ccc2n1Cc1ccccc1` [Example 71, 4-[[3-(2-Hydrazino-2-oxoethyl)-2-methyl-1-(phenylmethyl)-1H-indol-5-yl]oxy]butanoic acid], the IC50 was 860 nM.
